Experimental data as given in patent US20250270190A1, “KIT INHIBITORS” (BLUEPRINT MEDICINES CORPORATION, priority 2022, published 2025).

Biological target: T1, c-kit autophosphorylation (Phospho c-Kit Tyr721) in HMC 1.1 (exon 11/13) cells, V654A (Homo sapiens, UniProt P10721, V560G/V654A)
T1 construct: endogenous in cells; host or cells: HMC 1.1 (exon 11/13) cells
Assay: pKIT Meso Scale Discovery (MSD) assay, inhibition of autophosphorylation of KIT, HMC1.1_V654A
Assay type: cell-based
Conditions: Table 1, cell line not named for Table 1, b1056 names pKIT HMC1.1_V654A, read-out: Code (IC50 for inhibition of autophosphorylation of KIT, pKIT MSD assay)
From the text: In this MSD assay, specific capture antibodies for the analytes were coated in arrays in each well of a 96-well carbon electrode plate surface. The detection system used SULFO-TAG™ labels that emit light upon electrochemical stimulation initiated at the electrode surfaces of the […] and MULTI-SPOT® plates. The electrical stimulation was decoupled from the output signal, which was light and generated assays with minimal background. The goal of this assay was to assess the percent inhibition of autophosphorylation of c-kit in cells when treated with compounds of the disclosure in a dose-dependent manner.
HMC1.1 cells were maintained in IMDM media supplemented with 20% Calf Serum with Iron and 100 units/mL Penicillin-Streptomycin and grown in a 37° C. humidified tissue culture incubator. HMC1.1 cells were passaged by 1:5 dilution into fresh IMDM media supplemented with 20% Calf Serum with Iron and 100 units/mL Penicillin-Streptomycin every 5-7 days and were discarded after 20 passages.
Seeding was performed as follows: HMC cells were brought to 1×10^6 cells/mL in fresh phenol red free, serum-free, iron-free IDM media with Pen/Strep; cells were seeded/plated into respective U-bottom plate by dispensing 50 μL/well (50,000 cells) using the Multidrop, and covered and incubated cells at 37° C. in a humidified tissue culture incubator for 4 hours (starvation).
Dosing was performed as follows: The compound mother plate was prepared by adding 16 μL of compound to 24 μL of DMSO to row A, odd-numbered columns of screen matrix plate. […] Intermediate plates were prepared in V-bottom plates by dispensing 98 μL of phenol red free, serum free IMDM media with Pen/Strep into all wells. 2 μL DMSO or 2 μL 10 mM staurosporine was added to appropriate control wells. At the end of four hours, the Bravo protocol 10 cpds vertical dose MSD 2 U-plates 96-well was used to: add 2 μL from the compound plate to the intermediate plate and dose cells with 7 μL from the intermediate plate. The cells were covered and incubated at 37° C. in a humidified tissue culture incubator for 90 min. The complete lysis buffer was prepared with AlphaLISA 5× Lysis Buffer supplemented with 1× protease inhibitor cocktail and kept on ice. The cells were pelleted by centrifuging plate at 2500×g for 5 min, 4° C. and media removed. Complete lysis buffer was added (14 μL/well). The cells were covered and shaken at 4° C. on a plate shaker at 600 rpm for 30 min and kept cold
The MSD protocol was preformed as follows: Tris Wash Buffer (2L) was prepared by diluting 10× stock of Tris Wash Buffer to 1× in water. Blocking Solution was prepared by dissolving 600 mg Blocker A in 20 mL 1× Trish Wash Buffer (per plate). The Antibody Dilution Buffer was prepared by mixing 1 mL Blocking solution and 2 mL 1× Trish Wash Buffer (per plate) and kept on ice. Blocking Solution was added (150 μL/well) to each MSD plate using a multichannel repeater pipette. The plate was covered and incubated at room temperature on a plate shaker at 700 rpm for hr. The Bio Tek protocol RL-96w-wash-MSD_stacker_fromC was used to wash plates 3× with 150 μL/well. Cells were pelleted by centrifuging lysate plates at 2500×g for 5 mins. The Bravo protocol was used (transfer 25 ul supernatants from V-96 to assay plate) to transfer 25 μL sample lysate per well to each MSD plate. The plates were covered and incubated at room temperature on a plate shaker at 700 rpm for hr. The Bio Tek protocol RL-96w-wash-MSD_stacker_fromC was used to wash plates 3× with 150 μL/well. The Detection Antibody Solution was prepared by diluting the 60 μL of the 50× antibody stock in 2.94 mL of the Antibody Dilution Buffer (per plate) and kept on ice. 25 μL/well of detection antibody solution was added to each MSD plate. The plates were covered and incubated at room temperature on a plate shaker at 700 rpm for 1 hr. The Read Buffer was prepared by diluting 5 mL of 4× stock of Read Buffer to 1× in 15 mL water (per plate).

T1 sequence (P10721 26-976 V560G/V654A): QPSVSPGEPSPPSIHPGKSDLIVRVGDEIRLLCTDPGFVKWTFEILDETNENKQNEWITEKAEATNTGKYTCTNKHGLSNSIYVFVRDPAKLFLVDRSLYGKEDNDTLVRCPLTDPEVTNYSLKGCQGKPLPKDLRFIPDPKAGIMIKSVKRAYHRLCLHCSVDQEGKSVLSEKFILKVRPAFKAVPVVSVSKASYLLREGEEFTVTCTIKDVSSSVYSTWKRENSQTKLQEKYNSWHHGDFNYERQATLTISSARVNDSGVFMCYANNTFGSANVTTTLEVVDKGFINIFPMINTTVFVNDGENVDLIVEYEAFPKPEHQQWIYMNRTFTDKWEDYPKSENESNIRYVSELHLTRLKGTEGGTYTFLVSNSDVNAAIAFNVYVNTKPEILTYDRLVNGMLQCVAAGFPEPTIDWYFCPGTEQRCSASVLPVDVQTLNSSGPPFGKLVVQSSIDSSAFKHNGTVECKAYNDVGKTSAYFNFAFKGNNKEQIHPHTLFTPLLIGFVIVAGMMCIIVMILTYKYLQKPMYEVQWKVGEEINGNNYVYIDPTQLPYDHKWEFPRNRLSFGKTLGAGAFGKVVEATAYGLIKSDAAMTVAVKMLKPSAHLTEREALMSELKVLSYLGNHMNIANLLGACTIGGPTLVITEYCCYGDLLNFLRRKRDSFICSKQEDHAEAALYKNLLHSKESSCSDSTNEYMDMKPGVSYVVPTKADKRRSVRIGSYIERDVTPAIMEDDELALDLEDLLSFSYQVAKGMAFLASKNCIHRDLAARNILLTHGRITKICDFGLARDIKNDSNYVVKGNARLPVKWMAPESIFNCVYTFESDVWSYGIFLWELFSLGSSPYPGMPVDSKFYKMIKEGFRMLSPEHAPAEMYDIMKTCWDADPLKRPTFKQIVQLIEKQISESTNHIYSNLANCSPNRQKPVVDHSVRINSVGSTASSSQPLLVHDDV

IC50 | Compound
< 10 nM | 6-((6-amino-2-(difluoromethyl)pyrimidin-4-yl)amino)-N-methyl-4-((4-methyltetrahydro-2H-pyran-4-yl)amino)nicotinamide [Compound 125]
10 to 40 nM | 6-((6-amino-4-(difluoromethyl)pyridin-2-yl)amino)-4-(((1R,2S)-2-fluorocyclopropyl)amino)-N-methylnicotinamide [Compound 44]
10 to 40 nM | 6-((6-amino-4-(difluoromethyl)pyridin-2-yl)amino)-4-(((1S,2R)-2-fluorocyclopropyl)amino)-N-methylnicotinamide [Compound 45]
10 to 40 nM | CNC(=O)c1cnc(Nc2cc(N)nc(CF)n2)cc1NC(C)CF (single isomer, unassigned) [Compound 27, (S)-6-((6-amino-2-(fluoromethyl)pyrimidin-4-yl)amino)-4-((1-fluoropropan-2-yl)amino)-N-methylnicotinamide or (R)-6-((6-amino-2-(fluoromethyl)pyrimidin-4-yl)amino)-4-((1-fluoropropan-2-yl)amino)-N-methylnicotinamide]
> 40 nM | CNC(=O)c1cnc(Nc2cc(N)nc(CF)n2)cc1NC(C)CF (single isomer, unassigned) [Compound 28, (R)-6-((6-amino-2-(fluoromethyl)pyrimidin-4-yl)amino)-4-((1-fluoropropan-2-yl)amino)-N-methylnicotinamide or (S)-6-((6-amino-2-(fluoromethyl)pyrimidin-4-yl)amino)-4-((1-fluoropropan-2-yl)amino)-N-methylnicotinamide]
< 10 nM | C[C@@H](CF)Oc1cc(Nc2cc(N)nc(C(F)F)n2)ncc1-c1cnn(C)c1 (single isomer, unassigned) [Compound 87, (S)-2-(difluoromethyl)-N4-(4-((1-fluoropropan-2-yl)oxy)-5-(1-methyl-1H-pyrazol-4-yl)pyridin-2-yl)pyrimidine-4,6-diamine or (R)-2-(difluoromethyl)-N4-(4-((1-fluoropropan-2-yl)oxy)-5-(1-methyl-1H-pyrazol-4-yl)pyridin-2-yl)pyrimidine-4,6-diamine]
< 10 nM | C[C@H](CF)Oc1cc(Nc2cc(N)nc(C(F)F)n2)ncc1-c1cnn(C)c1 (single isomer, unassigned) [Compound 88, (R)-2-(difluoromethyl)-N4-(4-((1-fluoropropan-2-yl)oxy)-5-(1-methyl-1H-pyrazol-4-yl)pyridin-2-yl)pyrimidine-4,6-diamine or (S)-2-(difluoromethyl)-N4-(4-((1-fluoropropan-2-yl)oxy)-5-(1-methyl-1H-pyrazol-4-yl)pyridin-2-yl)pyrimidine-4,6-diamine]
10 to 40 nM | COc1cc(Nc2cc(N)nc(C(F)F)n2)ncc1-c1cnn([C@H]2CCNC2)c1 (single isomer, unassigned) [Compound 99, (S)-2-(difluoromethyl)-N4-(4-methoxy-5-(1-(pyrrolidin-3-yl)-1H-pyrazol-4-yl)pyridin-2-yl)pyrimidine-4,6-diamine or (R)-2-(difluoromethyl)-N4-(4-methoxy-5-(1-(pyrrolidin-3-yl)-1H-pyrazol-4-yl)pyridin-2-yl)pyrimidine-4,6-diamine]
10 to 40 nM | COc1cc(Nc2cc(N)nc(C(F)F)n2)ncc1-c1cnn([C@@H]2CCNC2)c1 (single isomer, unassigned) [Compound 100, (R)-2-(difluoromethyl)-N4-(4-methoxy-5-(1-(pyrrolidin-3-yl)-1H-pyrazol-4-yl)pyridin-2-yl)pyrimidine-4,6-diamine or (S)-2-(difluoromethyl)-N4-(4-methoxy-5-(1-(pyrrolidin-3-yl)-1H-pyrazol-4-yl)pyridin-2-yl)pyrimidine-4,6-diamine]
> 40 nM | COc1cc(Nc2cc(N)nc(C(F)F)n2)ncc1-c1cnn(C[C@H]2CCN2)c1 (single isomer, unassigned) [Compound 101, (R)-N4-(5-(1-(azetidin-2-ylmethyl)-1H-pyrazol-4-yl)-4-methoxypyridin-2-yl)-2-(difluoromethyl)pyrimidine-4,6-diamine or (S)-N4-(5-(1-(azetidin-2-ylmethyl)-1H-pyrazol-4-yl)-4-methoxypyridin-2-yl)-2-(difluoromethyl)pyrimidine-4,6-diamine]
< 10 nM | COc1cc(Nc2cc(N)nc(C(F)F)n2)ncc1-c1cnn(C[C@@H]2CCN2)c1 (single isomer, unassigned) [Compound 102, (S)-N4-(5-(1-(azetidin-2-ylmethyl)-1H-pyrazol-4-yl)-4-methoxypyridin-2-yl)-2-(difluoromethyl)pyrimidine-4,6-diamine or (R)-N4-(5-(1-(azetidin-2-ylmethyl)-1H-pyrazol-4-yl)-4-methoxypyridin-2-yl)-2-(difluoromethyl)pyrimidine-4,6-diamine]
< 10 nM | COc1cc(Nc2cc(N)nc(C(F)F)n2)ncc1-c1cnn([C@H]2CCOC2)c1 (single isomer, unassigned) [Compound 109, (S)-2-(difluoromethyl)-N4-(4-methoxy-5-(1-(tetrahydrofuran-3-yl)-1H-pyrazol-4-yl)pyridin-2-yl)pyrimidine-4,6-diamine or (R)-2-(difluoromethyl)-N4-(4-methoxy-5-(1-(tetrahydrofuran-3-yl)-1H-pyrazol-4-yl)pyridin-2-yl)pyrimidine-4,6-diamine]
< 10 nM | COc1cc(Nc2cc(N)nc(C(F)F)n2)ncc1-c1cnn([C@@H]2CCOC2)c1 (single isomer, unassigned) [Compound 110, (R)-2-(difluoromethyl)-N4-(4-methoxy-5-(1-(tetrahydrofuran-3-yl)-1H-pyrazol-4-yl)pyridin-2-yl)pyrimidine-4,6-diamine or (S)-2-(difluoromethyl)-N4-(4-methoxy-5-(1-(tetrahydrofuran-3-yl)-1H-pyrazol-4-yl)pyridin-2-yl)pyrimidine-4,6-diamine]
< 10 nM | CN[C@@H](C)Cn1cc(-c2cnc(Nc3cc(N)nc(C(F)F)n3)cc2OC)cn1 (single isomer, unassigned) [Compound 117, (S)-2-(difluoromethyl)-N4-(4-methoxy-5-(1-(2-(methylamino)propyl)-1H-pyrazol-4-yl)pyridin-2-yl)pyrimidine-4,6-diamine or (R)-2-(difluoromethyl)-N4-(4-methoxy-5-(1-(2-(methylamino)propyl)-1H-pyrazol-4-yl)pyridin-2-yl)pyrimidine-4,6-diamine]
10 to 40 nM | CN[C@H](C)Cn1cc(-c2cnc(Nc3cc(N)nc(C(F)F)n3)cc2OC)cn1 (single isomer, unassigned) [Compound 118, (R)-2-(difluoromethyl)-N4-(4-methoxy-5-(1-(2-(methylamino)propyl)-1H-pyrazol-4-yl)pyridin-2-yl)pyrimidine-4,6-diamine or (S)-2-(difluoromethyl)-N4-(4-methoxy-5-(1-(2-(methylamino)propyl)-1H-pyrazol-4-yl)pyridin-2-yl)pyrimidine-4,6-diamine]
< 10 nM | COc1cc(Nc2cc(N)nc(C(F)F)n2)ncc1-c1cnn(C[C@H]2CCN2C)c1 (single isomer, unassigned) [Compound 138, (R)-2-(difluoromethyl)-N4-(4-methoxy-5-(1-((1-methylazetidin-2-yl)methyl)-1H-pyrazol-4-yl)pyridin-2-yl)pyrimidine-4,6-diamine or (S)-2-(difluoromethyl)-N4-(4-methoxy-5-(1-((1-methylazetidin-2-yl)methyl)-1H-pyrazol-4-yl)pyridin-2-yl)pyrimidine-4,6-diamine]
